Experimental data taken from paper PMC12298648, “An Evaluation of the Cytotoxicity and Safety Profile of Usnic Acid for a Broad Panel of Human Cancers and Normal Cells with Respect to Its Enantiospecificity” (Molecules, 2025).
In brackets after ≈: the same amount, converted by molar mass.

Key:
[1] = tested on: Nthy ori 3-1; experiment: MTT viability assay, normal thyroid follicular epithelial cells; assay type: cell-based, human; conditions: for IC50: Homo sapiens; for Cell viability: Nthy ori 3-1, 24 h
From the text: (§1) Cell lines of different origins were used in the study and grouped as follows: prostate panel (human prostate carcinomas: DU145, derived from metastatic site: brain; grade IV PC3, derived from metastatic site: bone; LNCaP, derived from the metastatic site: lymph node; prostate epithelial, PNT2), colon panel (colorectal adenocarcinomas: HT29, originating from a primary tumor; Duke’s type C DLD-1, with the potential to lymph node metastasis; highly metastatic HCT116; colon epithelial cells CCD 841 CoN), thyroid panel (follicular thyroid carcinoma FTC133, anaplastic thyroid carcinoma 8505C, papillary thyroid carcinoma TPC-1, normal thyroid follicular epithelial Nthy-ori 3–1), breast panel (ER-positive breast adenocarcinoma MCF7, ER-negative breast adenocarcinoma MDA-MB-231, breast epithelial MCF10A), brain panel (neuroblastoma SH-SY5Y, glioblastoma U-87 MG, murine astrocytes C8D1A). All cell lines were purchased from Merck (Darmstadt, Germany).
(§2) Cells were grown under standard conditions (37 °C, 5% CO2) and culture media (DMEM/F12 for PNT2, PC3, FTC133, 8505 C, MDA-MB-231, TPC-1; DMEM Low Glucose for DU145; DMEM High Glucose for HCT116, DLD-1, SH-SY5Y, U87MG, C8D1A; MEM with NEAA for MCF7; MEM for CCD 841 CoN; McCoy’s for HT29; RPMI1640 with sodium pyruvate for LNCaP; DMEM/F12 with 20 ng/mL epidermal growth factor (EGF), 10 μg/mL insulin, 0.5 μg/mL hydrocortisone, 100 ng/mL cholera toxin) for MCF10A), supplemented with 10% fetal bovine serum (FBS) or 5% donor horse serum for MCF10A, and 1% antibiotics solution (10,000 U penicillin and 10 mg streptomycin/mL). The tested substances were prepared as 10 mg/mL stock solutions in DMSO and further diluted in the culture media to the working concentrations. Cells were treated with UA enantiomers at the concentration range of 0–50 µg/mL. The influence of DMSO on cell viability was also examined, with the final concentration […], and no toxic effect was noted.
(§3) The cells were seeded onto 96-well plates at a density of 1.5 × 10^4 cells/well. After 24 h UA enantiomers were added. Cell viability was determined after 24, 48, and 72 h by the MTT assay, as described previously. Doxorubicin was used as a reference cytostatic drug. All analyses were performed in triplicate; cell viability was expressed as % of control, untreated cells (mean ± SD), and IC50 values (concentration at which cell viability is inhibited by 50%), if possible.

[2] = tested on: HT29; experiment: MTT viability assay, HT29 colon cancer cells; assay type: cell-based, human; conditions: for Cell viability: HT29, 24 h; for IC50: Homo sapiens, HT-29
From the text: as §1, §2, §3

[3] = tested on: U87MG; experiment: MTT viability assay, glioblastoma U87MG cells; assay type: cell-based, human; conditions: 24 h
From the text: as §1, §2, §3

[4] = tested on: MCF7; experiment: MTT viability assay, MCF7 breast cancer cells; assay type: cell-based, human; conditions: for IC50: Homo sapiens; for Cell viability: MCF7, 24 h
From the text: as §1, §2, §3
(§4) The selectivity index (SI) was calculated, if possible, by dividing the IC50 value obtained for non-cancerous cells line by the IC50 values obtained for appropriate cancer cell line, as described previously. […] The values above 3 indicate good selectivity.

[5] = tested on: 8505C; experiment: MTT viability assay, 8505C anaplastic thyroid carcinoma cells; assay type: cell-based, human; conditions: for Cell viability: 24 h; for IC50: Homo sapiens
From the text: as §1, §2, §3

[6] = tested on: PNT2; experiment: MTT viability assay, normal prostate epithelial cells; assay type: cell-based, human; conditions: for IC50: Homo sapiens; for Cell viability: PNT2, 24 h
From the text: as §1, §2, §3

[7] = tested on: DLD-1; experiment: MTT viability assay, DLD-1 colon cancer cells; assay type: cell-based, human; conditions: for Cell viability: DLD-1, 24 h; for IC50: Homo sapiens
From the text: as §1, §2, §3

[8] = tested on: PC3; experiment: MTT viability assay, PC3 prostate cancer cells; assay type: cell-based, human; conditions: for IC50: Homo sapiens, PC-3; for Cell viability: PC3, 24 h
From the text: as §1, §2, §3, §4

[9] = tested on: C8D1A; experiment: MTT viability assay, normal astrocytes C8D1A; assay type: cell-based, murine; conditions: C8D1A, 24 h
From the text: as §1, §2, §3

CC(=O)C1=C(O)C=C2Oc3c(C(C)=O)c(O)c(C)c(O)c3[C@]2(C)C1=O [UA(−), (−)-usnic acid] was tested, and the IC50 ([1]; Nthy-ori 3-1, 48 h) was greater than 50 µg/mL, the IC50 ([1]; Nthy-ori 3-1, 72 h) was 29.3 µg/mL (≈ 85.1 µM) and the Cell viability ([1]; 2.5 µg/mL) was 97.23 % of control. The Cell viability ([1]; 5 µg/mL) was 99.36 % of control, the Cell viability ([1]; 10 µg/mL) was 94.52 % of control and the Cell viability ([1]; 20 µg/mL) was 93.76 % of control. For the same molecule, the Cell viability ([1]; 30 µg/mL) was 95.25 % of control, the Cell viability ([1]; 40 µg/mL) was 96.10 % of control and the Cell viability ([1]; 50 µg/mL) was 98.58 % of control. For the same molecule, the Cell viability ([2]; 2.5 µg/mL) was 102.45 % of control, the Cell viability ([2]; 5 µg/mL) was 90.48 % of control and the Cell viability ([2]; 10 µg/mL) was 84.03 % of control. The Cell viability ([2]; 20 µg/mL) was 79.62 % of control, the Cell viability ([2]; 30 µg/mL) was 74.37 % of control and the Cell viability ([2]; 40 µg/mL) was 72.48 % of control. The Cell viability ([2]; 50 µg/mL) was 73.95 % of control, the IC50 ([2]; HT29, 48 h) was greater than 50 µg/mL and the IC50 ([2]; HT29, 72 h) was 32.7 µg/mL (≈ 95 µM). The Cell viability ([3]; 2.5 µg/mL) was 102.34 % of control, the Cell viability ([3]; 5 µg/mL) was 102.19 % of control and the Cell viability ([3]; 10 µg/mL) was 101.69 % of control. The Cell viability ([3]; 20 µg/mL) was 101.59 % of control, the Cell viability ([3]; 30 µg/mL) was 111.54 % of control and the Cell viability ([3]; 40 µg/mL) was 106.02 % of control. The Cell viability ([3]; 50 µg/mL) was 98.56 % of control, the IC50 ([4]; MCF7, 48 h) was greater than 50 µg/mL and the IC50 ([4]; MCF7, 72 h) was 33.4 µg/mL (≈ 97 µM). The Cell viability ([4]; 2.5 µg/mL) was 124.74 % of control, the Cell viability ([4]; 5 µg/mL) was 113.59 % of control and the Cell viability ([4]; 10 µg/mL) was 110.03 % of control. For the same molecule, the Cell viability ([4]; 20 µg/mL) was 106.15 % of control, the Cell viability ([4]; 30 µg/mL) was 109.10 % of control and the Cell viability ([4]; 40 µg/mL) was 106.28 % of control. The Cell viability ([4]; 50 µg/mL) was 91.15 % of control, the Cell viability ([5]; 2.5 µg/mL) was 105.18 % of control and the Cell viability ([5]; 5 µg/mL) was 107.97 % of control. For the same molecule, the Cell viability ([5]; 10 µg/mL) was 100.80 % of control, the Cell viability ([5]; 20 µg/mL) was 100.00 % of control and the Cell viability ([5]; 30 µg/mL) was 102.79 % of control. For the same molecule, the Cell viability ([5]; 40 µg/mL) was 103.98 % of control, the Cell viability ([5]; 50 µg/mL) was 94.42 % of control and the IC50 ([5]; 48 h) was greater than 50 µg/mL. It also gave an IC50 ([5]; 72 h) greater than 50 µg/mL, an IC50 ([6]; PNT2, 48 h) of 35.4 µg/mL (≈ 103 µM) and an IC50 ([6]; PNT2, 72 h) of 27.8 µg/mL (≈ 80.7 µM). The Cell viability ([6]; 2.5 µg/mL) was 103.40 % of control, the Cell viability ([6]; 5 µg/mL) was 99.24 % of control and the Cell viability ([6]; 10 µg/mL) was 91.32 % of control. For the same molecule, the Cell viability ([6]; 20 µg/mL) was 83.13 % of control, the Cell viability ([6]; 30 µg/mL) was 74.58 % of control and the Cell viability ([6]; 40 µg/mL) was 68.75 % of control. The Cell viability ([6]; 50 µg/mL) was 54.38 % of control, the Cell viability ([7]; 2.5 µg/mL) was 100.75 % of control and the Cell viability ([7]; 5 µg/mL) was 97.99 % of control. The Cell viability ([7]; 10 µg/mL) was 92.05 % of control, the Cell viability ([7]; 20 µg/mL) was 81.25 % of control and the Cell viability ([7]; 30 µg/mL) was 78.35 % of control. The Cell viability ([7]; 40 µg/mL) was 77.75 % of control, the Cell viability ([7]; 50 µg/mL) was 77.98 % of control and the IC50 ([7]; DLD-1, 48 h) was 44.3 µg/mL (≈ 129 µM). The IC50 ([7]; DLD-1, 72 h) was 15.4 µg/mL (≈ 44.7 µM), the IC50 ([8]; PC3, 48 h) was 37.8 µg/mL (≈ 110 µM) and the IC50 ([8]; PC3, 72 h) was 34.8 µg/mL (≈ 101 µM). The “selectivity index (SI)” value ([8]; IC50 PNT2 / IC50 PC3, 48 h) was 0.93, the “selectivity index (SI)” value ([8]; IC50 PNT2 / IC50 PC3, 72 h) was 0.79 and the Cell viability ([8]; 2.5 µg/mL) was 102.94 % of control. The Cell viability ([8]; 5 µg/mL) was 94.68 % of control, the Cell viability ([8]; 10 µg/mL) was 91.59 % of control and the Cell viability ([8]; 20 µg/mL) was 89.10 % of control. The Cell viability ([8]; 30 µg/mL) was 76.52 % of control, the Cell viability ([8]; 40 µg/mL) was 69.15 % of control and the Cell viability ([8]; 50 µg/mL) was 68.91 % of control. The Cell viability ([9]; 2.5 µg/mL) was 100.83 % of control, the Cell viability ([9]; 5 µg/mL) was 99.17 % of control and the Cell viability ([9]; 10 µg/mL) was 95.67 % of control. The Cell viability ([9]; 20 µg/mL) was 96.00 % of control, the Cell viability ([9]; 30 µg/mL) was 88.42 % of control and the Cell viability ([9]; 40 µg/mL) was 90.58 % of control. The Cell viability ([9]; 50 µg/mL) was 104.75 % of control.
